Results reported in ChEMBL document CHEMBL3608205, “Eight new cycloartane triterpenoids from Beesia calthifolia with hepatoprotective effects against D-galactosamine induced L02 cell damage” (Bioorg Med Chem Lett, 2015).

Tested on: L02; call rule not given here
Assay: Hepatoprotective activity in human L02 cells assessed as reduction in D-galactosamine-induced cell damage at 0.1 to 1000 uM pre-incubated at 37 degC for 24 hrs before D-galactosamine challenge for 24 hrs by SRB method
Format: functional, cell-based
[1] = Homo sapiens, L02, read-out: EC50

| Compound | EC50 (l02) | EC50 [1] [µM] |
| --- | --- | --- |
| CC(=O)OC[C@]12CC[C@@]34C[C@@]35CC[C@H](O[C@@H]3OC[C@@H](O)[C@H](O)[C@H]3O)C(C)(C)[C@@H]5CC[C@H]4[C@]1(C)[C@@H](O)[C@H](OC(C)=O)[C@@H]2[C@]1(C)CC[C@H](C(C)(C)O)O1 | Not Active |  |
| CC(=O)O[C@H]1[C@H](O)[C@H]([C@]2(C)CC[C@H](C(C)(C)O)O2)[C@@]2(C)CC[C@@]34C[C@@]35CC[C@H](O[C@@H]3OC[C@@H](O)[C@H](O)[C@H]3O)C(C)(C)[C@@H]5CC[C@H]4[C@]12C | Not Active |  |
| CC(C)(O)[C@H]1CC[C@@](C)([C@H]2[C@@H](O)[C@H](O)[C@@]3(C)[C@@H]4CC[C@H]5C(C)(C)[C@@H](O[C@@H]6OC[C@@H](O)[C@H](O)[C@H]6O)CC[C@@]56C[C@@]46C[C@H](O)[C@]23C)O1 |  | 70.8 |
| CC(=O)O[C@H]1[C@H](OC(C)=O)[C@@]2(C)[C@@H]3CC[C@H]4C(C)(C)[C@@H](O)CC[C@@]45C[C@@]35C[C@@H](O)[C@]2(C)[C@H]1[C@]1(C)CC[C@H](C(C)(C)O)O1 (mixture of isomers) |  | 10.7 |
| CC(C)(O)[C@H]1CC[C@@](C)([C@H]2C(=O)[C@H](O)[C@@]3(C)[C@@H]4CC[C@H]5C(C)(C)[C@@H](O[C@@H]6OC[C@@H](O)[C@H](O)[C@H]6O)CC[C@@]56C[C@@]46C[C@H](O)[C@]23C)O1 (relative stereo) |  | 78.6 |
| CC(C)(O)[C@H]1CC[C@@](C)([C@H]2C(=O)[C@H](O)[C@@]3(C)[C@@H]4CC[C@H]5C(C)(C)[C@@H](O)CC[C@@]56C[C@@]46C[C@H](O)[C@]23C)O1 (relative stereo) | Not Active |  |
| CC(C)(O)[C@H]1CC[C@@](C)([C@H]2[C@@H](O)[C@H](O)[C@@]3(C)[C@@H]4CC[C@H]5C(C)(C)[C@@H](O[C@@H]6OC[C@@H](O)[C@H](O)[C@H]6O)CC[C@@]56C[C@@]46C[C@H](O)[C@]23CO)O1 (relative stereo) |  | 48.9 |
| CC(C)(O)[C@H]1CC[C@@](C)([C@H]2[C@@H](O)[C@H](O)[C@@]3(C)[C@@H]4CC[C@H]5C(C)(C)[C@@H](O[C@@H]6OC[C@@H](O)[C@H](O)[C@H]6O)CC[C@@]56C[C@@]46C[C@@H](O)[C@]23C)O1 (relative stereo) |  | 61.6 |
